We go through one compound from patent US20200054541A1, “METHODS FOR REDUCING SWEAT AND/OR BODY ODOR, USING P[…] WITH AMINE AND/OR HYDROXYL GROUPS” (Henkel AG & Co. KGaA, priority 2017, published 2020).

The assay concerns backs of 16 test persons. As to the kind of experiment: In vivo test for antiperspirant activity (sauna sweat test, gravimetric). The conditions noted are these: 5.0% by weight aqueous solution, 75 μL applied on the back on four consecutive days; measured 24 h after last application; about 15 minutes at 80° C. in the sauna; gravimetric vs untreated site; 16 subjects. The arrangement: species or system human. The procedure: 1. In Vivo Test for Antiperspirant Activity
To determine the antiperspirant effect, an antiperspirant study was performed on the backs of 16 test persons. A 5.0% by weight aqueous solution of a phosphonate compound of the Formula (I) with a=b=1, R=*—(CH2)x—PO3X^+Y^+ group where x=1 and X^+=Y^+=hydrogen or Na^+ was prepared for this purpose.
75 μL of the prepared solution were applied on the back of 16 subjects on one side next to the spine. After 5 minutes, the treated sites were covered with occlusive non-adsorbent film. These non-adsorbent pads were removed after 2 hours. The compositions were each applied to the backs of the subjects for four consecutive days in the manner previously described. 24 h after the last application of the composition, absorbent pads were applied to the backs of the subjects at the sites where the compositions were previously applied. Furthermore, pads, which served as a control, were also applied on the other side of the spine at the same height. After the subjects had sweat for about 15 minutes at 80° C. in the sauna, the amount of perspiration absorbed by the pads was determined gravimetrically, wherein each composition was compared with the corresponding untreated site on the back. The sweat reduction was determined from the gravimetric determination of the amount of sweat, wherein all determined values were statistically significant.

Compound `O=P(O)(O)CN(CP(=O)(O)O)CP(=O)(O)O` [phosphonate compound of Formula (I), aminotrimethylene phosphonate] returned a sweat reduction of 10.1%.
